Publication PMC5066289, “Pharmacokinetics of anidulafungin during venovenous extracorporeal membrane oxygenation” (Critical Care, 2016)
Entries after “also recorded” stand apart in the source; their conditions may differ. Numbered stars: 1 amine (or outer) side, 2 acyl side, 3 side chain; on linkers, the order of the positions; unused ones are H or OH. Bridge positions count the residues as written; N and C are the ends. Square brackets hold non-standard residues; d marks the D form. Peptide text beside a SMILES is read from it. * marks the point of attachment. pTerphenylCO(4''-OnC5H11) = CCCCCOc1ccc(-c2ccc(-c3ccc(C(=O)*)cc3)cc2)cc1; Orn(4R-OH,5R-OH) = O=C([C@H](C[C@@H](O)[C@@H](O)N[*:3])N[*:1])[*:2]; hTyr(3S-OH,4S-OH) = N[C@H](C(=O)O)[C@H](O)[C@@H](O)c1ccc(O)cc1; Pro(3S-OH,4S-Me) = C[C@H]1CN[C@H](C(=O)O)[C@H]1O; Hyp = O=C(O)[C@@H]1C[C@@H](O)CN1

Assays:
[1] = Non-compartmental pharmacokinetics of anidulafungin in a critically ill patient on venovenous ECMO (plasma and urine, HPLC); format: in vivo, human
Text: Echinocandins are currently considered the first-line treatment for invasive candidiasis (IC) in the intensive care unit (ICU). However, extracorporeal membrane oxygenation (ECMO), a rescue therapy used in patients with severe acute respiratory distress syndrome (ARDS), could alter the pharmacokinetics of certain drugs. We prescribed anidulafungin for suspected IC in a patient with severe ARDS on ECMO and measured the plasma concentrations of the drug using high-performance liquid chromatography (HPLC).
(§1) A patient was admitted to the ICU with septic shock secondary to peritonitis. The anti-infective treatment was based on surgical source control and broad spectrum antimicrobial therapy, including anidulafungin at usual doses. The patient developed severe ARDS. ECMO with Novalung iLA Activve™ was initiated, maintaining ultraprotective ventilation. Femoral (23 F) and jugular (19 F) cannulas (Novalung™, Germany) were inserted with 4.5 L/min blood flow and 4 L/min gas flow. Urine samples and pre-filter and post-filter blood samples were collected before starting the eight-dose anidulafungin infusion and 0.5, 1, 1.5, 2, 4, 6, 8, and 24 h after the infusion ended.
A non-compartmental pharmacokinetic analysis was performed using Abbottbase Pharmacokinetic Systems™ (Abbott Laboratories, Illinois, USA). The maximum and trough plasma concentrations (Cmax and Cmin, respectively) were estimated directly from concentration-time data. The area under the plasma concentration-time curve over the 24-h dosing interval (AUC0–24) was estimated using the linear trapezoidal rule for both pre-filter and post-filter data. Clearance (CL) was estimated as dose/AUC0–24. The apparent volume of distribution at steady state (Vss) was estimated as the product of CL and mean residence time (MRT).

[2] = Tolerability of anidulafungin in the patient on ECMO; format: in vivo, human; settings: single critically ill patient on venovenous ECMO; usual doses
Text: as §1

## CCCCCOc1ccc(-c2ccc(-c3ccc(C(=O)N[C@H]4C[C@@H](O)[C@@H](O)NC(=O)[C@@H]5[C@@H](O)[C@@H](C)CN5C(=O)[C@H]([C@@H](C)O)NC(=O)[C@H]([C@H](O)[C@@H](O)c5ccc(O)cc5)NC(=O)[C@@H]5C[C@@H](O)CN5C(=O)[C@H]([C@@H](C)O)NC4=O)cc3)cc2)cc1 [anidulafungin] ({pTerphenylCO(4''-OnC5H11)}-[Orn(4R-OH,5R-OH)]T[Hyp][hTyr(3S-OH,4S-OH)]T[Pro(3S-OH,4S-Me)]; lactam 1-C)
[1]; single patient on venovenous ECMO, non-compartmental, dose/AUC0-24
  Clearance (CL): 0.933 L/h
[1]; single patient on venovenous ECMO, non-compartmental, product of CL and MRT
  Apparent volume of distribution at steady state (Vss): 18.9 L
[1]; single patient on venovenous ECMO, urine samples over 24 h, HPLC, limit of detection 0.05 mg/L
  Urine anidulafungin concentrations: negligible; also recorded: very low and close to the limit of detection
[1]; single patient on venovenous ECMO, usual doses, eighth dose, plasma, HPLC, estimated directly from concentration-time data
  Trough plasma concentration (Cmin): 2190 ng/mL
[1]; single patient with severe ARDS on venovenous ECMO, anidulafungin infusion at usual doses, sampled around the eighth dose, plasma, HPLC, estimated directly from concentration-time data
  Maximum plasma concentration (Cmax): 13500 ng/mL
[2]
  Tolerability / adverse effects: well tolerated without relevant adverse effects
